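Values below derive from 48-hour exposures of cells grown in 96-well plates, with endpoints linearly interpolated between the two concentrations bracketing the appropriate inhibition level. Here, GI50 denotes the concentration required for 50% inhibition of growth.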 Activity calls are given as the source filed them. No stated cut-off is given here; in the data, active = GI50 up to about 1.1 µM and inactive = higher.
What was measured:
Assay in all cases: NCI anticancer screen, dose series, 48 h
786-0 = test system: 786-0
A498 = test system: A498
A549 = test system: A549
ACHN = test system: ACHN
BT-549 = test system: BT-549
CAKI-1 = test system: CAKI-1
CCRF-CEM = test system: CCRF-CEM
COLO 205 = test system: COLO 205
DU-145 = test system: DU-145
EKVX = test system: EKVX
HCC 2998 = test system: HCC 2998
HCT-116 = test system: HCT-116
HCT-15 = test system: HCT-15
HL-60 = test system: HL-60
HOP-62 = test system: HOP-62
HOP-92 = test system: HOP-92
HT-29 = test system: HT-29
Hs-578T = test system: Hs-578T
IGROV-1 = test system: IGROV-1
K562 = test system: K562
KM12 = test system: KM12
LOX IMVI = test system: LOX IMVI
M14 = test system: M14
MCF7 = test system: MCF7
MDA-MB-231 = test system: MDA-MB-231
MDA-MB-435 = test system: MDA-MB-435
MDA-N = test system: MDA-N
MOLT-4 = test system: MOLT-4
Malme-3M = test system: Malme-3M
NCI-H226 = test system: NCI-H226
NCI-H23 = test system: NCI-H23
NCI-H460 = test system: NCI-H460
NCI-H522 = test system: NCI-H522
NCI/ADR-RES = test system: NCI/ADR-RES
OVCAR-3 = test system: OVCAR-3
OVCAR-4 = test system: OVCAR-4
OVCAR-5 = test system: OVCAR-5
OVCAR-8 = test system: OVCAR-8
PC-3 = test system: PC-3
RPMI-8226 = test system: RPMI-8226
RXF 393 = test system: RXF 393
SF-268 = test system: SF-268
SF-295 = test system: SF-295
SF-539 = test system: SF-539
SK-MEL-28 = test system: SK-MEL-28
SK-MEL-2 = test system: SK-MEL-2
SK-MEL-5 = test system: SK-MEL-5
SK-OV-3 = test system: SK-OV-3
SN12C = test system: SN12C
SNB-19 = test system: SNB-19
SNB-75 = test system: SNB-75
SR = test system: SR
SW-620 = test system: SW-620
T47D = test system: T47D
TK-10 = test system: TK-10
U-251 = test system: U-251
UACC-257 = test system: UACC-257
UACC-62 = test system: UACC-62
UO-31 = test system: UO-31

O=C1CC[N+]2=Cc3ccccc3O[B-]2(c2ccccc2)O1 (configuration not stated)
GI50 (786-0): > 100 µM (inactive)
GI50 (A498): > 100 µM (inactive)
GI50 (A549): > 100 µM (inactive)
GI50 (ACHN): > 100 µM (inactive)
GI50 (BT-549): > 100 µM (inactive)
GI50 (CAKI-1): > 100 µM (inactive)
GI50 (CCRF-CEM): > 100 µM (inactive)
GI50 (COLO 205): > 100 µM (inactive)
GI50 (DU-145): > 100 µM (inactive)
GI50 (EKVX): > 100 µM (inactive)
GI50 (HCC 2998): > 100 µM (inactive)
GI50 (HCT-116): > 100 µM (inactive)
GI50 (HCT-15): > 100 µM
GI50 (HL-60): 89.9 µM (inactive)
GI50 (HOP-62): > 100 µM (inactive)
GI50 (HOP-92): 21.5 µM (inactive)
GI50 (HT-29): > 100 µM (inactive)
GI50 (Hs-578T): > 100 µM (inactive)
GI50 (IGROV-1): > 100 µM (inactive)
GI50 (K562): > 100 µM (inactive)
GI50 (KM12): > 100 µM (inactive)
GI50 (LOX IMVI): > 100 µM (inactive)
GI50 (M14): > 100 µM (inactive)
GI50 (MCF7): > 100 µM (inactive)
GI50 (MDA-MB-231): > 100 µM (inactive)
GI50 (MDA-MB-435): > 100 µM (inactive)
GI50 (MDA-N): > 100 µM (inactive)
GI50 (MOLT-4): > 100 µM (inactive)
GI50 (Malme-3M): > 100 µM (inactive)
GI50 (NCI-H226): > 100 µM (inactive)
GI50 (NCI-H23): > 100 µM (inactive)
GI50 (NCI-H460): > 100 µM (inactive)
GI50 (NCI-H522): > 100 µM (inactive)
GI50 (NCI/ADR-RES): > 100 µM (inactive)
GI50 (OVCAR-3): > 100 µM (inactive)
GI50 (OVCAR-4): > 100 µM (inactive)
GI50 (OVCAR-5): > 100 µM (inactive)
GI50 (OVCAR-8): > 100 µM (inactive)
GI50 (PC-3): > 100 µM (inactive)
GI50 (RPMI-8226): > 100 µM (inactive)
GI50 (RXF 393): > 100 µM (inactive)
GI50 (SF-268): > 100 µM (inactive)
GI50 (SF-295): > 100 µM (inactive)
GI50 (SF-539): > 100 µM (inactive)
GI50 (SK-MEL-28): > 100 µM (inactive)
GI50 (SK-MEL-2): > 100 µM (inactive)
GI50 (SK-MEL-5): 97.7 µM (inactive)
GI50 (SK-OV-3): > 100 µM (inactive)
GI50 (SN12C): > 100 µM (inactive)
GI50 (SNB-19): > 100 µM (inactive)
GI50 (SNB-75): 67.1 µM (inactive)
GI50 (SR): > 100 µM (inactive)
GI50 (SW-620): > 100 µM (inactive)
GI50 (T47D): > 100 µM (inactive)
GI50 (TK-10): > 100 µM (inactive)
GI50 (U-251): > 100 µM (inactive)
GI50 (UACC-257): > 100 µM (inactive)
GI50 (UACC-62): > 100 µM (inactive)
GI50 (UO-31): > 100 µM (inactive)

CS(=O)(=O)C(=Cc1ccccc1Cl)S(C)(=O)=O
GI50 (786-0): > 100 µM (inactive)
GI50 (A498): > 100 µM (inactive)
GI50 (A549): > 100 µM (inactive)
GI50 (ACHN): > 100 µM (inactive)
GI50 (BT-549): > 100 µM (inactive)
GI50 (CAKI-1): > 100 µM (inactive)
GI50 (CCRF-CEM): 25.5 µM (inactive)
GI50 (COLO 205): > 100 µM (inactive)
GI50 (DU-145): > 100 µM (inactive)
GI50 (EKVX): > 100 µM (inactive)
GI50 (HCC 2998): > 100 µM (inactive)
GI50 (HCT-116): 31.1 µM (inactive)
GI50 (HCT-15): > 100 µM
GI50 (HL-60): 1.14 µM (inactive)
GI50 (HOP-62): > 100 µM (inactive)
GI50 (HOP-92): > 100 µM (inactive)
GI50 (HT-29): > 100 µM (inactive)
GI50 (Hs-578T): > 91.2 µM (inactive)
GI50 (IGROV-1): > 100 µM (inactive)
GI50 (K562): 3.7 µM (inactive)
GI50 (KM12): > 46.5 µM (inactive)
GI50 (LOX IMVI): > 100 µM (inactive)
GI50 (M14): > 80.2 µM (inactive)
GI50 (MCF7): > 40.3 µM (inactive)
GI50 (MDA-MB-231): > 100 µM (inactive)
GI50 (MDA-MB-435): > 27.8 µM (inactive)
GI50 (MDA-N): > 46.5 µM (inactive)
GI50 (MOLT-4): > 100 µM (inactive)
GI50 (Malme-3M): > 100 µM (inactive)
GI50 (NCI-H226): > 100 µM (inactive)
GI50 (NCI-H23): > 100 µM (inactive)
GI50 (NCI-H460): > 100 µM (inactive)
GI50 (NCI-H522): > 100 µM (inactive)
GI50 (NCI/ADR-RES): > 100 µM (inactive)
GI50 (OVCAR-3): > 100 µM (inactive)
GI50 (OVCAR-4): > 100 µM (inactive)
GI50 (OVCAR-5): > 100 µM (inactive)
GI50 (OVCAR-8): > 100 µM (inactive)
GI50 (PC-3): > 100 µM (inactive)
GI50 (RPMI-8226): > 100 µM (inactive)
GI50 (RXF 393): > 100 µM (inactive)
GI50 (SF-268): > 100 µM (inactive)
GI50 (SF-295): > 46.5 µM (inactive)
GI50 (SF-539): > 100 µM (inactive)
GI50 (SK-MEL-28): > 100 µM (inactive)
GI50 (SK-MEL-2): > 100 µM (inactive)
GI50 (SK-MEL-5): > 92 µM (inactive)
GI50 (SK-OV-3): > 100 µM (inactive)
GI50 (SN12C): > 100 µM (inactive)
GI50 (SNB-19): > 100 µM (inactive)
GI50 (SNB-75): > 100 µM (inactive)
GI50 (SR): > 100 µM (inactive)
GI50 (SW-620): > 66.4 µM (inactive)
GI50 (T47D): > 100 µM (inactive)
GI50 (TK-10): > 100 µM (inactive)
GI50 (U-251): > 100 µM (inactive)
GI50 (UACC-257): > 100 µM (inactive)
GI50 (UACC-62): 24.4 µM (inactive)
GI50 (UO-31): > 100 µM (inactive)

CC(C)(C)c1cc(OCc2nn3c(Cc4ccccc4)nnc3s2)c(Cl)cc1OCc1nn2c(Cc3ccccc3)nnc2s1
GI50 (786-0): 30 µM (inactive)
GI50 (A498): 15 µM (inactive)
GI50 (A549): 29.7 µM (inactive)
GI50 (ACHN): 14.4 µM (inactive)
GI50 (BT-549): 25.1 µM (inactive)
GI50 (CAKI-1): 23.6 µM (inactive)
GI50 (CCRF-CEM): 6.67 µM (inactive)
GI50 (COLO 205): 24.7 µM (inactive)
GI50 (DU-145): 30.5 µM (inactive)
GI50 (EKVX): 12.9 µM (inactive)
GI50 (HCC 2998): 53.6 µM (inactive)
GI50 (HCT-116): 16.6 µM (inactive)
GI50 (HCT-15): 19.6 µM
GI50 (HL-60): 23.9 µM (inactive)
GI50 (HOP-62): 94.2 µM (inactive)
GI50 (HOP-92): 16.2 µM (inactive)
GI50 (HT-29): 23.3 µM (inactive)
GI50 (Hs-578T): > 100 µM (inactive)
GI50 (IGROV-1): 20.7 µM (inactive)
GI50 (K562): 17.3 µM (inactive)
GI50 (KM12): 26.9 µM (inactive)
GI50 (LOX IMVI): 37.1 µM (inactive)
GI50 (M14): 29.7 µM (inactive)
GI50 (MCF7): 22.5 µM (inactive)
GI50 (MDA-MB-231): 33.3 µM (inactive)
GI50 (MDA-MB-435): 26.4 µM (inactive)
GI50 (MDA-N): 36.5 µM (inactive)
GI50 (MOLT-4): 8.93 µM (inactive)
GI50 (Malme-3M): 12 µM (inactive)
GI50 (NCI-H226): > 100 µM (inactive)
GI50 (NCI-H23): 39.1 µM (inactive)
GI50 (NCI-H460): 28.2 µM (inactive)
GI50 (NCI-H522): 23.5 µM (inactive)
GI50 (NCI/ADR-RES): 39.3 µM (inactive)
GI50 (OVCAR-3): 15.6 µM (inactive)
GI50 (OVCAR-4): 19.8 µM (inactive)
GI50 (OVCAR-5): 60.8 µM (inactive)
GI50 (OVCAR-8): 25.3 µM (inactive)
GI50 (PC-3): 20.1 µM (inactive)
GI50 (RPMI-8226): 10.6 µM (inactive)
GI50 (RXF 393): 17.1 µM (inactive)
GI50 (SF-268): 55.5 µM (inactive)
GI50 (SF-295): 12.8 µM (inactive)
GI50 (SF-539): 55.5 µM (inactive)
GI50 (SK-MEL-28): 36.2 µM (inactive)
GI50 (SK-MEL-2): 30.8 µM (inactive)
GI50 (SK-MEL-5): 8.65 µM (inactive)
GI50 (SK-OV-3): > 100 µM (inactive)
GI50 (SN12C): 34.8 µM (inactive)
GI50 (SNB-19): 80.9 µM (inactive)
GI50 (SNB-75): 91 µM (inactive)
GI50 (SR): 39.9 µM (inactive)
GI50 (SW-620): 43.6 µM (inactive)
GI50 (T47D): 3.43 µM (inactive)
GI50 (TK-10): 34.4 µM (inactive)
GI50 (U-251): 21.8 µM (inactive)
GI50 (UACC-257): 23.6 µM (inactive)
GI50 (UACC-62): 24.1 µM (inactive)
GI50 (UO-31): 31.1 µM (inactive)
